{"source": "patent US20230121926A1", "about": "“METHODS FOR TISSUE REGENERATION AND KITS THEREFOR” (THE BOARD OF TRUSTEES OF THE LELAND STANFORD JUNIOR …, priority 2020, published 2023)", "key": {"[1]": {"system": "deep partial-thickness excisional wounds", "test": "Porcine deep partial-thickness excisional wound model", "assay_type": "in vivo, red Duroc pigs", "description": "Porcine deep partial-thickness excisional wound model: Prior to operation, animals were administered oral amoxicillin 10 mg/kg for 24 hours. General anesthesia was administered by Veterinary Services personnel and was established with intramuscular telazol 6-8 mg/kg, administered once as a pre-anesthetic. Animals were then intubated using an endotracheal tube and maintained on 1.5-3% of inhaled isoflurane throughout the procedure. The hair on the back was clipped and skin was cleansed initially with Betadine© solution following by a 70% alcohol rinse. Excisional wounds were created with a standard electric Zimmer dermatome (Zimmer Biomet, Warsaw, Ind.). Up to eight wounds, approximately 5 cm×5 cm in size, were created on each lateral flank, with 3-5 cm intervals between wounds (FIG. 1A). Multiple dermatome passes were performed to create deep partial-thickness wounds of uniform 0.07 inch depth. The wounds were randomly assigned to receive either FAKI hydrogel (W_IF), blank hydrogel (‘placebo’, W_H), or no hydrogel (wounded control, W) (n=6-9 wounds per condition). Animals were given oral amoxicillin 10 mg/kg post-operatively twice a day for 5 days total. Wound dressings, including FAKI hydrogel patches, were changed every other day for the first three weeks after initial injury until POD 21 (FIG. 1C). Thereafter, dressings were changed twice per week until POD 90. Animals were subject to short-term sedation for each dressing change. The actual dose delivered to the wound was tested on porcine fresh wounds (red Duroc pigs). In a time-dependent study, the amount of VS-6062 detected at approximately 0.5 mm wound depth over 24 hours ranged from 30-100 microG/g tissue by weight. The amount of VS-6062 detected beyond 1 mm wound depth was less than 5 microG/g tissue. Wound closure, visual scar assessment, and viscoelastic analyses. Wounds were monitored photographically at each dressing change. Days to wound closure, defined as complete re-epithelialization without open wound area, were determined for each wound based on gross photographic assessment. Quantification of scar metrics were performed using a Visual Analog Scale (VAS) for 5 components (vascularity, pigmentation, observer comfort, acceptability, and contour) by a panel of four blinded scar experts. Total scores are calculated as a composite of all 5 scores; lower scores indicate improved scar appearance. A Cutometer (Dual MPA 580, Courage+Khazaka Electronic, Köln, Germany) was used to evaluate the firmness and elasticity of the healing wounds at POD 60. The cutometer measures the vertical deformation of the skin surface by applying a negative pressure (suction) through a small circular diameter (2 mm probe). Cutometer assessment is the gold standard to measure viscoelasticity in human patients. Deformation (suction) for two seconds followed by two seconds of relaxation (no suction) is applied for three cycles. The elasticity ratio (ability for tissue to return back to original setpoint) was measured during the relaxation period (R2 metric). Histological and immunofluorescent staining. […] Masson's Trichrome staining and Picrosirius Red staining were performed. Picrosirius Red-stained images were captured using polarized light microscopy (Leica DM5000 B upright microscope). Collagen fibers were also visualized using Second Harmonic Generation (SHG) on a Leica SP5 upright confocal multi-photon microscope using a […]. SHG images were captured with an excitation wavelength of 860 nm, a pulse length of approximately 100 fs, and an emission filter centered at 445 nm with a 20-nm bandwidth. Forward SHG was used to image fibroblasts and backward SHG was used to image in vivo tissue sections. Analysis of fiber alignment was performed on Picrosirius Red-stained images at 40× magnification using the custom software MatFiber, an intensity-gradient-detection algorithm for analysis of overall alignment of collagen fibers and stress fibers from multiple samples. […]"}, "[2]": {"system": "dermal fibroblasts", "test": "Fibroblast-populated 3D collagen scaffold under strain (alignment, contraction)", "assay_type": "cell-based, human", "description": "Mechanotransduction shifts human fibroblast heterogeneity. […] To confirm the translational potential of the results in the porcine model on the role of mechanotransduction in the fibrotic response, dermal fibroblasts isolated from human surgical patients were then evaluated. Cells were seeded within 3D collagen scaffolds at densities of 2.0 mg/mL collagen and 200,000 cells/mL (FIG. 2A). To artificially increase tissue forces, the mechanical strain applied to fibroblasts was precisely manipulated as described in Chen, K. et al, “Role of boundary conditions in determining cell alignment in response to stretch”, PNAS 115, 986-991, doi:10.1073/pnas.1715059115 (2018), the entire disclosure of which is hereby incorporated by reference in its entirety, and shown in FIG. 2B and FIG. 9A. […] The efficacy of this in vitro system to mimic the fibrogenic phenotype observed in healing wounds and resultant scar was confirmed. […] Fibroblast reorganization of ECM drives collagen remodeling and development of long, aligned collagen fibers characteristic of fibrosis. […]\nFibroblast-populated 3D collagen scaffold experiments. […] Nine Titanium (IV) oxide paint dots (Sigma-Aldrich) were applied on the surface of the central region of the gel (boxes in FIG. 9A) to track and quantify the imposed strains. […]"}, "[3]": {"conditions": "POD 60, versus untreated wounds"}, "[4]": {"conditions": "porcine wound tissue, treated vs untreated"}}}
{"smiles": "CN(c1ncccc1CNc1nc(Nc2ccc3c(c2)CC(=O)N3)ncc1C(F)(F)F)S(C)(=O)=O", "note": "[VS-6062]", "values": [{"measurement": "regeneration of secondary structures (hair follicles, cutaneous glands)", "setting": "[1]; Masson's Trichrome, POD 90 and POD 180", "value": "regrowth of hair follicles and other cutaneous glands"}, {"measurement": "wound elasticity (cutometer)", "setting": "[1]; [3]", "value": "increased elasticity"}, {"measurement": "wound firmness (cutometer)", "setting": "[1]; [3]", "value": "decreased firmness"}, {"measurement": "intradermal adipocytes (Perilipin A staining)", "setting": "[1]; POD 90, deep dermal layer", "value": "regeneration of Perilipin A-positive intradermal adipocytes"}, {"measurement": "healing earlier than wounds treated with standard dressings or empty hydrogels", "setting": "[1]; controls healed after POD 24", "value": "more than 10 days"}, {"measurement": "gross appearance of the treated wounds", "setting": "[1]; difference in scarring evident as early as POD 40", "value": "normal appearing skin"}, {"measurement": "collagen structure of healed wounds (Picrosirius Red)", "setting": "[1]; pig, in vivo", "value": "basket weave-like collagen structure characteristic to unwounded porcine skin"}, {"measurement": "protein expression of Collagen I (immunofluorescence)", "setting": "[1]; [4]", "value": "decreased"}, {"measurement": "protein expression of Collagen III (immunofluorescence)", "setting": "[1]; [4]", "value": "decreased"}, {"measurement": "protein expression of MMP1 (immunofluorescence)", "setting": "[1]; [4]", "value": "increased"}, {"measurement": "protein expression of MMP3 (immunofluorescence)", "setting": "[1]; [4]", "value": "increased"}, {"measurement": "protein expression of alpha SMA (immunofluorescence)", "setting": "[1]; [4]", "value": "decreased"}, {"measurement": "time at which wounds were fully healed", "setting": "[1]; sustained release hydrogel scaffold, 5x5 cm wounds", "value": "14±2.3 postoperative day (POD)"}, {"measurement": "CT-FIRE fiber count", "setting": "[1]; trend", "value": "return number of fibers closer to unwounded skin"}, {"measurement": "fibroblast alignment under uniaxial strain", "setting": "[2]; 10% uniaxial strain, 10 micromolar FAKI", "value": "aligned multi-directionally"}, {"measurement": "contraction assay: fibroblast remodeling of the ECM environment", "setting": "[2]; collagen scaffolds", "value": "hinders the fibroblasts from remodeling (R) the ECM environment"}]}
